In experiment [1] the target is full-length human RORγt (Homo sapiens (Human), UniProt P51449). The experiment in a line: RORγt (full-length human) reporter assay, Conditions B or C. Type of experiment: cell-based. To be noted: for inhibition at 3 µM: at 3 μM compound concentration, read-out: RORγt (FL) Reporter Assay B or C, % inhibition; for IC50: read-out: RORγt (FL) Reporter Assay B or C, IC50; for RORγt (FL) Reporter Assay B or C, % inhibition (value marked *): marked *: footnote not given. The method in brief:
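HEK293T cells transiently co-transfected with GAL4-DBD–full-length human RORγt (nt 142-1635, NM_001001523.1) plus GAL4-firefly and CMV-Renilla luciferase reporters; compounds added 4-6 h post-transfection for 16-20 h in 1.3% FBS, 0.1% DMSO. Firefly signal normalized to DMSO and saturating reference compound, then to Renilla; IC50 from concentration plots.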

The target in experiment [2] is human RORγt ligand binding domain (RORγt LBD) (Homo sapiens (Human), UniProt P51449). The experiment in a line: RORγt ThermoFluor® assay (thermal shift binding). To be noted: read-out: ThermoFluor® Assay, Kd. In short, it runs like this: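 His-tagged human RORγt LBD (0.065 mg/mL) with 60 μM 1,8-ANS in 100 mM Hepes pH 7.0, 10 mM NaCl, 2.5 mM GSH, 0.002% Tween-20 was heated at 1 °C/min.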

Where two headings read alike, the source gives them in different places.

Chain of human RORγt ligand binding domain (RORγt LBD) (P51449 other isoform, or with tags, fused parts or gaps): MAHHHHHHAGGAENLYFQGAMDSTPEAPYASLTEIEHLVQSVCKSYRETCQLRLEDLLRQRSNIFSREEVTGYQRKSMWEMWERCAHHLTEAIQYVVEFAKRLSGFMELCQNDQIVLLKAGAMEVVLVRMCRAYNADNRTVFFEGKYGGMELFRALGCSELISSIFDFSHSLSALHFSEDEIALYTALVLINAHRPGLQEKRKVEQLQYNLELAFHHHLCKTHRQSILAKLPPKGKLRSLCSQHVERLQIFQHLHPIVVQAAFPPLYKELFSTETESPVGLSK
Chain of full-length human RORγt (P51449 other isoform, or with tags, fused parts or gaps): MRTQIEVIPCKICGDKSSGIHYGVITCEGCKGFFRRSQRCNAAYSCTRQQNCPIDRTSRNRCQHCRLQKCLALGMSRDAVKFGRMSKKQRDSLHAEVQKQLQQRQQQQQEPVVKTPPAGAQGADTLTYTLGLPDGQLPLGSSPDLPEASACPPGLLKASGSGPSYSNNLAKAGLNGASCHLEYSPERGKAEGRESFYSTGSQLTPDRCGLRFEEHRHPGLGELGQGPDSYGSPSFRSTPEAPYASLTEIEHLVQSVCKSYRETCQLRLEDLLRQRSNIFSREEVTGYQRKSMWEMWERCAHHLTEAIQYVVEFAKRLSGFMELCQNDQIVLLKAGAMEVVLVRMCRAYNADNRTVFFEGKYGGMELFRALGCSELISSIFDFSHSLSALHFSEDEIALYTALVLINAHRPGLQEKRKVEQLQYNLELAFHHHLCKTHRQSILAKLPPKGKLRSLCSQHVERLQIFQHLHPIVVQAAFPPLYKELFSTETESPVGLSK

`C[C@H]1CCCN1C(=O)c1nc(C(=O)N[C@H]2C[C@H](O)C2)sc1-c1cnc(N[C@H](C2CC2)C(F)(F)F)cc1C(F)F` [Example 320, 5-(6-(((R)-1-Cyclopropyl-2,2,2-trifluoroethyl)amino)-4-(difluoromethyl)pyridin-3-yl)-N-((1r,3S)-3-hydroxycyclobutyl)-4-((S)-2-methylpyrrolidine-1-carbonyl)thiazole-2-carboxamide]: in experiment [1], the inhibition at 3 µM turned out to be 98% and the IC50 turned out to be 46 nM. Moreover, the Kd in experiment [2] was determined as 3.8 nM.

As for `CC(C)(O)CNC(=O)c1nc(C(=O)N2C3CCC2CC3)c(-c2cnc(NC(C3CC3)C3CC3)cc2C(F)F)s1` [Example 178, 4-((1s,4s)-7-Azabicyclo[2.2.1]heptane-7-carbonyl)-5-(6-((dicyclopropylmethyl)amino)-4-(difluoromethyl)pyridine-3-yl)-N-(2-hydroxy-2-methylpropyl)thiazole-2-carboxamide], in experiment [1] (Conditions B or C), the “RORγt (FL) Reporter Assay B or C, % inhibition (value marked *)” value (from here on “RORγt … % inhibition (value marked *)”) was 102* % and the IC50 came to 5.5 nM. The dissociation constant (Kd) in experiment [2] was 2 nM.

With `C[C@H](Nc1cc(C(F)F)c(-c2sc(C(=O)N[C@H](C)C(C)(C)O)nc2C(=O)N2CC(F)(F)C[C@@H]2C)cn1)C1CC1` [Example 194, 5-(6-(((S)-1-Cyclopropylethyl)amino)-4-(difluoromethyl)pyridine-3-yl)-4-((S)-4,4-difluoro-2-methylpyrrolidine-1-carbonyl)-N—((R)-3-hydroxy-3-methylbutan-2-yl)thiazole-2-carboxamide], in experiment [1] (Conditions B or C), the “RORγt … % inhibition (value marked *)” value was 85* % and the IC50 came to 88 nM. Also, in experiment [2], the Kd stood at 4.7 nM.

Regarding `C[C@H]1CCCN1C(=O)c1nc(C(=O)NCC(C)(C)O)sc1-c1cnc(NC2CCCC2(F)F)cc1C(F)(F)F` (stereo partly drawn) [Example 127, 5-(6-((2,2-Difluorocyclopentyl)amino)-4-(trifluoromethyl)pyridin-3-yl)-N-(2-hydroxy-2-methylpropyl)-4-((S)-2-methylpyrrolidine-1-carbonyl)thiazole-2-carboxamide], in experiment [1] (Conditions B or C), the “RORγt … % inhibition (value marked *)” value is 114* % and the IC50 was found to be 110 nM. In addition, in experiment [2], the Kd is 6.2 nM.

Take `O=C(N[C@H]1CC[C@@H]1O)c1nc(C(=O)N2C3CCC2CC3)c(-c2cnc(N[C@@H](C3CC3)C(F)(F)F)cc2C(F)F)s1` (relative stereo) [Example 444, 4-((1s,4s)-7-Azabicyclo[2.2.1]heptane-7-carbonyl)-5-(6-(((S)-1-cyclopropyl-2,2,2-trifluoroethyl)amino)-4-(difluoromethyl)pyridin-3-yl)-N-((1S*,2S*)-2-hydroxycyclobutyl)thiazole-2-carboxamide]: in experiment [1], the inhibition at 3 µM came to 102% and the 50% inhibitory concentration (IC50) is 4.5 nM. In addition, the Kd in experiment [2] was determined as 2.3 nM.

`C[C@H]1CCCN1C(=O)c1nc(C(=O)N2CC[C@H](O)C2)sc1-c1cnc(NC(C)(C)C)cc1C(F)(F)F` [Example 350, [5-[6-(tert-Butylamino)-4-(trifluoromethyl)-3-pyridyl]-2-[(3S)-3-hydroxypyrrolidine-1-carbonyl]thiazol-4-yl]-[(2S)-2-methylpyrrolidin-1-yl]methanone]: in experiment [1], the inhibition at 3 µM worked out at 110% and the half-maximal inhibitory concentration (IC50) turned out to be 30 nM. Besides, in experiment [2], the Kd turned out to be 8.3 nM.

Turning to `C[C@H]1CCCN1C(=O)c1nc(C(=O)NCC(C)(C)O)sc1-c1cnc(NC2(C(F)(F)F)CC2)cc1C(F)(F)F` [Example 147, (S)—N-(2-Hydroxy-2-methylpropyl)-4-(2-methylpyrrolidine-1-carbonyl)-5-(4-(trifluoromethyl)-6-((1-(trifluoromethyl)cyclopropyl)amino)pyridin-3-yl)thiazole-2-carboxamide], the “RORγt (FL) Reporter Assay B or C, % inhibition (value marked ***)” value in experiment [1] (Conditions B or C, marked ***: footnote not given) is 94*** %. Also, in experiment [1] (Conditions B or C), the 50% inhibitory concentration (IC50) is 120 nM. Moreover, in experiment [2], the Kd came to 9.4 nM.

Take `C[C@H]1CCCN1C(=O)c1nc(C(=O)NCC(C)(C)O)sc1-c1ccnc(NC2CCCCC2)c1C#N` [Comparator Example 1, (S)-5-(3-Cyano-2-(cyclohexylamino)pyridin-4-yl)-N-(2-hydroxy-2-methylpropyl)-4-(2-methylpyrrolidine-1-carbonyl)thiazole-2-carboxamide, reference compound]: the IC50 in experiment [1] (HEK293T cells) is more than 6000 nM. For the same molecule, the Kd in experiment [2] was found to be 3000 nM.

For `C[C@H]1CCCN1C(=O)c1nc(C(=O)NC(C)(C)C(C)(C)O)sc1-c1cnc(NC(C)(C)C)cc1C(F)(F)F` [Example 342, 5-[6-(tert-Butylamino)-4-(trifluoromethyl)-3-pyridyl]-N-(2-hydroxy-1,1,2-trimethyl-propyl)-4-[(2S)-2-methylpyrrolidine-1-carbonyl]thiazole-2-carboxamide], in experiment [1], the inhibition at 3 µM stood at 103% and the IC50 came to 40 nM. Also, in experiment [2], the dissociation constant Kd worked out at 5.7 nM.

As for `C[C@H]1CC(F)(F)CN1C(=O)c1nc(C(=O)NCC(C)(C)O)sc1-c1cnc(NCC2(C(F)(F)F)CC2)cc1C(F)F` [Example 275, 4-[(2S)-4,4-Difluoro-2-methyl-pyrrolidine-1-carbonyl]-5-[4-(difluoromethyl)-6-[[1-(trifluoromethyl)cyclopropyl]methylamino]-3-pyridyl]-N-(2-hydroxy-2-methyl-propyl)thiazole-2-carboxamide], in experiment [1], the inhibition at 3 µM was 99% and the IC50 turned out to be 14 nM. The Kd in experiment [2] is 2 nM.

Regarding `CC[C@H](Nc1cc(C(F)F)c(-c2sc(C(=O)N[C@@H]3C[C@@H]3O)nc2C(=O)N2CCC[C@@H]2C)cn1)C(F)(F)F` (relative stereo) [Example 211, 5-(4-(Difluoromethyl)-6-(((S)-1,1,1-trifluorobutan-2-yl)amino)pyridin-3-yl)-N-((1R*,2S*)-2-hydroxycyclopropyl)-4-((S)-2-methylpyrrolidine-1-carbonyl)thiazole-2-carboxamide], in experiment [1] (Conditions B or C), the “RORγt … % inhibition (value marked *)” value was 104* % and the IC50 turned out to be 14 nM. Further, the Kd in experiment [2] came out at 8.2 nM.

Consider `C[C@H]1CC(F)(F)CN1C(=O)c1nc(C(=O)N[C@H](C)C(C)(C)O)sc1-c1cnc(NC2(C)CCC2)cc1C(F)F` [Example 325, 4-((S)-4,4-Difluoro-2-methylpyrrolidine-1-carbonyl)-5-(4-(difluoromethyl)-6-((1-methylcyclobutyl)amino)pyridin-3-yl)-N—((R)-3-hydroxy-3-methylbutan-2-yl)thiazole-2-carboxamide], for which, in experiment [1], the inhibition at 3 µM came to 96% and the IC50 was found to be 120 nM. In experiment [2], the dissociation constant (Kd) worked out at 1.2 nM.

Turning to `C[C@H]1CCCN1C(=O)c1nc(C(=O)N[C@H](C)C(C)(C)O)sc1-c1cnc(N[C@H](C2CC2)C(F)(F)F)cc1C(F)F` [Example 332, 5-(6-(((R)-1-Cyclopropyl-2,2,2-trifluoroethyl)amino)-4-(difluoromethyl)pyridin-3-yl)-N—((R)-3-hydroxy-3-methylbutan-2-yl)-4-((S)-2-methylpyrrolidine-1-carbonyl)thiazole-2-carboxamide], in experiment [1], the inhibition at 3 µM came out at 107% and the 50% inhibitory concentration (IC50) stood at 89 nM. The Kd in experiment [2] is 1.5 nM.

With `C[C@H](CO)NC(=O)c1nc(C(=O)N2C3CCC2CC3)c(-c2cnc(N[C@@H](C)C(F)(F)F)cc2C(F)F)s1` [Example 226, 4-((1s,4s)-7-Azabicyclo[2.2.1]heptane-7-carbonyl)-5-(4-(difluoromethyl)-6-(((1S)-2,2,2-trifluoro-1-methyl-ethyl)amino)-3-pyridyl)-N-((1R)-2-hydroxy-1-methyl-ethyl)thiazole-2-carboxamide], in experiment [1] (Conditions B or C), the “RORγt … % inhibition (value marked *)” value was 94* % and the half-inhibitory concentration (IC50) is 140 nM. In experiment [2], the equilibrium dissociation constant (Kd) was 14 nM.

The values above are taken from patent publication US10975068B2, “6-aminopyridin-3-yl thiazoles as modulators of RORγT” (Janssen Pharmaceutica NV, priority 2016, dated 2021).
